Tested on: not given
Conditions: male, SD, in vivo
Protocol: Male SD rats (n=3/compound/route) were used for single intravenous and oral dose PK studies. Compounds were administered intravenously (infusion over 30 minutes) as a solution (Formulation: 5% DMSO: 20% Encapsine in saline; target dose 1 mg/kg) and orally as suspensions (Formulation: 1% Methyl Cellulose; target dose 5 mg/kg). After dosing, blood samples ([…]) were collected. Sampling times were the following:
0.25, 0.5 (just before end of infusion), 0.58, 0.75, 1, 1.5, 2, 3, 5, 7, and 24 hours; n=3 rats (intravenous infusion administration) 0.25, 0.5, 1, 2, 4, 6, 8, and 24 hours; n=3 rats (oral gavage administration)
All the blood samples were diluted with 25 μL of water and stored at −80° C. until analysis. Rat blood samples were analyzed for each compound using a method upon protein precipitation followed by LC-MS/MS analysis. All pharmacokinetic parameters were obtained by non-compartmental analysis of the different blood concentration-time profiles using WinNonLin Phoenix Version 6.3.

SMILES	F % (rat, 5 mg/kg) [%]
O=C(CCC(F)(F)F)N1CCC(c2ccnc(C(F)(F)F)c2)CC1 [Example 18, 4,4,4-trifluoro-1-(4-(2-(trifluoromethyl)pyridin-4-yl)piperidin-1-yl)butan-1-one]	75
O=C(CCC(F)(F)F)N1CCC(c2cncc(Cl)c2)CC1 [Example 30, 1-(4-(5-chloropyridin-3-yl)piperidin-1-yl)-4,4,4-trifluorobutan-1-one]	77

Tested on: M. tuberculosis H37Rv-GFP
Format: cell-based, Mycobacterium tuberculosis
Conditions: read-out: EC50_H37Rv

SMILES	EC50 [nM]
O=C(CCC(F)(F)F)N1CCC(c2cnccn2)CC1 [Example 1, 4,4,4-trifluoro-1-(4-pyrazin-2-yl-1-piperidyl)butan-1-one]	500 to 1000
O=C(CCC(F)(F)F)N1CCC(F)(c2cccnc2)CC1 [Example 2, 4,4,4-trifluoro-1-[4-fluoro-4-(3-pyridyl)-1-piperidyl]butan-1-one]	< 50
O=C(CCC(F)(F)F)N1CCC(c2cncc(F)c2)CC1 [Example 3, 4,4,4-trifluoro-1-[4-(5-fluoro-3-pyridyl)-1-piperidyl]butan-1-one]	50 to 250
O=C(CCC(F)(F)F)N1CCC(c2ccc(F)nc2)CC1 [Example 4, 4,4,4-trifluoro-1-[4-(6-fluoro-3-pyridyl)-1-piperidyl]butan-1-one]	50 to 250
O=C(CCC(F)(F)F)N1CCC(c2ccc(C(F)(F)F)nc2)CC1 [Example 5, 4,4,4-trifluoro-1-[4-[6-(trifluoromethyl)-3-pyridyl]-1-piperidyl]butan-1-one]	500 to 1000
O=C(CCC(F)(F)F)N1CCC(c2cc(C(F)(F)F)ccn2)CC1 [Example 6, 4,4,4-trifluoro-1-[4-[4-(trifluoromethyl)-2-pyridyl]-1-piperidyl]butan-1-one]	< 50
O=C(CCC(F)(F)F)N1CCC(c2cncc(C(F)(F)F)c2)CC1 [Example 7, 4,4,4-trifluoro-1-[4-[5-(trifluoromethyl)-3-pyridyl]-1-piperidyl]butan-1-one]	< 50
O=C(CCC(F)(F)F)N1CCC(c2cccc(C(F)(F)F)n2)CC1 [Example 8, 4,4,4-trifluoro-1-[4-[6-(trifluoromethyl)-2-pyridyl]-1-piperidyl]butan-1-one]	50 to 250
O=C(CCC(F)(F)F)N1CCC(c2cccc(F)n2)CC1 [Example 9, 4,4,4-trifluoro-1-[4-(6-fluoro-2-pyridyl)-1-piperidyl]butan-1-one]	50 to 250
COc1ccc(C2CCN(C(=O)CCC(F)(F)F)CC2)cn1 [Example 10, 4,4,4-trifluoro-1-[4-(6-methoxy-3-pyridyl)-1-piperidyl]butan-1-one]	50 to 250
O=C(CCC(F)(F)F)N1CCC(c2cccnc2C(F)(F)F)CC1 [Example 11, 4,4,4-trifluoro-1-[4-[2-(trifluoromethyl)-3-pyridyl]-1-piperidyl]butan-1-one]	1000 to 10000
COc1cncc(C2CCN(C(=O)CCC(F)(F)F)CC2)c1 [Example 12, 4,4,4-trifluoro-1-[4-(5-methoxy-3-pyridyl)-1-piperidyl]butan-1-one]	500 to 1000
O=C(CCC(F)(F)F)N1CCC(c2ncc(F)cc2F)CC1 [Example 13, 1-[4-(3,5-difluoro-2-pyridyl)-1-piperidyl]-4,4,4-trifluoro-butan-1-one]	50 to 250
O=C(CCC(F)(F)F)N1CCC(c2ccc(F)nc2F)CC1 [Example 14, 1-[4-(2,6-difluoro-3-pyridyl)-1-piperidyl]-4,4,4-trifluoro-butan-1-one]	50 to 250
O=C(CCC(F)(F)F)N1CCC(c2nccc(C(F)(F)F)n2)CC1 [Example 15]	1000 to 10000
O=C(CCC(F)(F)F)N1CCC(c2cncnc2)CC1 [Example 16]	1000 to 10000
O=C(CCC(F)(F)F)N1CCC(c2ccc(F)cn2)CC1 [Example 17, 4,4,4-trifluoro-1-[4-(5-fluoro-2-pyridyl)-1-piperidyl]butan-1-one]	< 50
O=C(CCC(F)(F)F)N1CCC(c2ccnc(C(F)(F)F)c2)CC1 [Example 18, 4,4,4-trifluoro-1-(4-(2-(trifluoromethyl)pyridin-4-yl)piperidin-1-yl)butan-1-one]	< 50
O=C(CCC(F)(F)F)N1CCC(c2cccnn2)CC1 [Example 19, 4,4,4-trifluoro-1-[4-(pyridazin-3-yl)piperidin-1-yl]butan-1-one]	1000 to 10000
O=C(CCC(F)(F)F)N1CCC(c2ccnc(F)c2)CC1 [Example 20, 4,4,4-trifluoro-1-(4-(2-fluoropyridin-4-yl)piperidin-1-yl)butan-1-one]	< 50
O=C(CCC(F)(F)F)N1CCC(c2cnc(C(F)(F)F)cn2)CC1 [Example 21, 4,4,4-trifluoro-1-(4-(5-(trifluoromethyl)pyrazin-2-yl)piperidin-1-yl)butan-1-one]	500 to 1000

SMILES	EC50 [nM]
Cc1cc(C2CCN(C(=O)CCC(F)(F)F)CC2)ccn1 [Example 22, 4,4,4-trifluoro-1-(4-(2-methylpyridin-4-yl)piperidin-1-yl)butan-1-one]	< 50
O=C(CCC(F)(F)F)N1CCC(c2cnc(F)c(F)c2)CC1 [Example 23, 1-(4-(5,6-difluoropyridin-3-yl)piperidin-1-yl)-4,4,4-trifluorobutan-1-one]	< 50
O=C(CCC(F)(F)F)N1CCC(c2cncc(C(F)(F)F)n2)CC1 [Example 24, 4,4,4-trifluoro-1-(4-(6-(trifluoromethyl)pyrazin-2-yl)piperidin-1-yl)butan-1-one]	50 to 250
O=C(CCC(F)(F)F)N1CCC(c2ccnc(Cl)c2)CC1 [Example 25, 1-(4-(2-chloropyridin-4-yl)piperidin-1-yl)-4,4,4-trifluorobutan-1-one]	< 50
O=C(CCC(F)(F)F)N1CCC(c2ccncc2F)CC1 [Example 26, 4,4,4-trifluoro-1-(4-(3-fluoropyridin-4-yl)piperidin-1-yl)butan-1-one]	50 to 250
O=C(CCC(F)(F)F)N1CCC(c2cccc(Cl)n2)CC1 [Example 27, 1-(4-(6-chloropyridin-2-yl)piperidin-1-yl)-4,4,4-trifluorobutan-1-one]	50 to 250
O=C(CCC(F)(F)F)N1CCC(c2ncccn2)CC1 [Example 28, 4,4,4-trifluoro-1-[4-(pyrimidin-2-yl)piperidin-1-yl]butan-1-one]	1000 to 10000
O=C(CCC(F)(F)F)N1CCC(F)(c2cncc(Cl)c2)CC1 [Example 29, 1-(4-(5-chloropyridin-3-yl)-4-fluoropiperidin-1-yl)-4,4,4-trifluorobutan-1-one]	< 50
O=C(CCC(F)(F)F)N1CCC(c2cncc(Cl)c2)CC1 [Example 30, 1-(4-(5-chloropyridin-3-yl)piperidin-1-yl)-4,4,4-trifluorobutan-1-one]	< 50
O=C(CCCC(F)(F)F)N1CCC(c2cncc(Cl)c2)CC1 [Example 31, 1-(4-(5-chloropyridin-3-yl)piperidin-1-yl)-5,5,5-trifluoropentan-1-one]	50 to 250
O=C(CCC(F)(F)F)N1CCC(c2cncc(Cl)n2)CC1 [Example 32, 1-(4-(6-chloropyrazin-2-yl)piperidin-1-yl)-4,4,4-trifluorobutan-1-one]	< 50
O=C(CCC(F)(F)F)N1CCC(F)(c2ccccn2)CC1 [Example 33, 4,4,4-trifluoro-1-(4-fluoro-4-(pyridin-2-yl)piperidin-1-yl)butan-1-one]	50 to 250
O=C(CCC(F)(F)F)N1CCC(F)(c2cncc(C(F)(F)F)c2)CC1 [Example 34, 4,4,4-trifluoro-1-(4-fluoro-4-(5-(trifluoromethyl)pyridin-3-yl)piperidin-1-yl)butan-1-one]	< 50
O=C(CCC(F)(F)F)N1CCC(F)(c2ccnc(C(F)(F)F)c2)CC1 [Example 35, 4,4,4-trifluoro-1-(4-fluoro-4-(2-(trifluoromethyl)pyridin-4-yl)piperidin-1-yl)butan-1-one]	< 50
O=C(CCC(F)(F)F)N1CCC(F)(c2cncc(Cl)n2)CC1 [Example 36, 1-(4-(6-chloropyrazin-2-yl)-4-fluoropiperidin-1-yl)-4,4,4-trifluorobutan-1-one]	50 to 250
O=C(CCC(F)(F)F)N1CCC(F)(c2ccnc(F)c2)CC1 [Example 37, 4,4,4-trifluoro-1-(4-fluoro-4-(2-fluoropyridin-4-yl)piperidin-1-yl)butan-1-one]	< 50
O=C(CCC(F)(F)F)N1CCC(c2cncc(Cl)c2)C1 (centres unmarked) [Example 38, 1-(3-(5-chloropyridin-3-yl)pyrrolidin-1-yl)-4,4,4-trifluorobutan-1-one]	< 50
O=C(CCC(F)(F)F)N1CCC(F)(c2cc(C(F)(F)F)ccn2)CC1 [Example 39, 4,4,4-trifluoro-1-[4-fluoro-4-[4-(trifluoromethyl)-2-pyridyl]-1-piperidyl]butan-1-one]	50 to 250
O=C(CCC(F)(F)F)N1CCC(F)(c2ccc(F)nc2)CC1 [Example 40]	50 to 250
O=C(CCC(F)(F)F)N1CCC(F)(c2ccnc(Cl)c2)CC1 [Example 41]	< 50

Tested on: not given
Conditions: male, Swiss (Crl:CD-1(ICR)), mouse, in vivo

SMILES	Mice liver hypertrophy (%)
O=C(CCC(F)(F)F)N1CCC(c2ccnc(C(F)(F)F)c2)CC1 [Example 18, 4,4,4-trifluoro-1-(4-(2-(trifluoromethyl)pyridin-4-yl)piperidin-1-yl)butan-1-one]	6
O=C(CCC(F)(F)F)N1CCC(c2cncc(Cl)c2)CC1 [Example 30, 1-(4-(5-chloropyridin-3-yl)piperidin-1-yl)-4,4,4-trifluorobutan-1-one]	2

Tested on: PPAR marker
Conditions: male, Swiss (Crl:CD-1(ICR)), mouse

SMILES	In vivo PPAR marker fold increase [fold]
O=C(CCC(F)(F)F)N1CCC(c2ccnc(C(F)(F)F)c2)CC1 [Example 18, 4,4,4-trifluoro-1-(4-(2-(trifluoromethyl)pyridin-4-yl)piperidin-1-yl)butan-1-one]	<6
O=C(CCC(F)(F)F)N1CCC(c2cncc(Cl)c2)CC1 [Example 30, 1-(4-(5-chloropyridin-3-yl)piperidin-1-yl)-4,4,4-trifluorobutan-1-one]	<2

— US11969423B2, “Compounds” (GLAXOSMITHKLINE INTELLECTUAL PROPERTY DEVELOPMENT LIMITED, priority 2017, dated 2024)
